# Assay results taken from ChEMBL document CHEMBL4831500, “Discovery of first-in-class imidazothiazole-based potent and selective ErbB4 (HER4) kinase inhibitors” (Eur J Med Chem, 2021).
# What was measured:
# NCI-H322M = experiment: Antiproliferative activity against human NCI-H322M cells assessed as cell growth inhibition measured after 48 hrs by SRB assay; type: functional, cell-based
# DU-145 [1] = experiment: Antiproliferative activity against human DU-145 cells assessed as cell growth inhibition measured after 48 hrs by SRB assay; type: functional, cell-based; details: DU-145, 48 h
# WI-38 = experiment: Cytotoxicity against human WI-38 cells assessed as cell growth inhibition measured after 48 hrs by SRB assay; type: cell-based; details: WI-38, 48 h
# SK-MEL-5 [2] = experiment: Antiproliferative activity against human SK-MEL-5 cells assessed as cell growth inhibition measured after 48 hrs by SRB assay; type: functional, cell-based; details: SK-MEL-5, 48 h
# SNB-75 [3] = experiment: Antiproliferative activity against human SNB-75 cells assessed as cell growth inhibition measured after 48 hrs by SRB assay; type: functional, cell-based; details: SNB-75, 48 h
# MDA-MB-468 [4] = experiment: Antiproliferative activity against human MDA-MB-468 cells assessed as cell growth inhibition at 10 uM measured after 48 hrs by SRB assay relative to control; type: functional
# [5] = tested on: Panel NCI-60 (60 carcinoma cell lines); experiment: Growth inhibition of human panel NCI-60 (60 carcinoma cells) assessed as growth percent at 10 uM measured after 48 hrs by SRB assay relative to control; type: functional; details: read-out: Activity
# UO-31 [6] = experiment: Antiproliferative activity against human UO-31 cells assessed as cell growth inhibition measured after 48 hrs by SRB assay; type: functional, cell-based; details: UO-31, 48 h
# [7] = molecular target: Receptor tyrosine-protein kinase erbB-2 (Homo sapiens) (UniProt P04626); experiment: Inhibition of ErbB2 (unknown origin) at 10 uM incubated for 40 mins in presence of Mg/ATP mix by [gamma p33]-ATP based scintillation counting method relative to control
# SK-MEL-5 [8] = experiment: Antiproliferative activity against human SK-MEL-5 cells assessed as cell growth inhibition at 10 uM measured after 48 hrs by SRB assay relative to control; type: functional
# [9] = molecular target: T1, RAF proto-oncogene serine/threonine-protein kinase (Homo sapiens, UniProt P04049); experiment: Inhibition of RAF1 (unknown origin) at 10 uM incubated for 40 mins in presence of Mg/ATP mix by [gamma p33]-ATP based scintillation counting method relative to control
# SNB-75 [10] = experiment: Antiproliferative activity against human SNB-75 cells assessed as cell growth inhibition at 10 uM measured after 48 hrs by SRB assay relative to control; type: functional
# [11] = molecular target: T2, Serine/threonine-protein kinase B-raf (Homo sapiens, UniProt P15056); experiment: Inhibition of wild type B-RAF (unknown origin) at 10 uM incubated for 40 mins in presence of Mg/ATP mix by [gamma p33]-ATP based scintillation counting method relative to control
# [12] = tested on: Serine/threonine-protein kinase B-raf (Homo sapiens), P15056 [V600E]; experiment: Inhibition of BRAF V600E mutant (unknown origin) at 10 uM incubated for 40 mins in presence of Mg/ATP mix by [gamma p33]-ATP based scintillation counting method relative to control
# HL-60(TB) [13] = experiment: Antiproliferative activity against human HL-60(TB) cells assessed as cell growth inhibition measured after 48 hrs by SRB assay; type: functional, cell-based; details: HL-60, 48 h
# [14] = molecular target: Proto-oncogene tyrosine-protein kinase Src (Homo sapiens) (UniProt P12931); experiment: Inhibition of C-SRC (unknown origin) at 10 uM incubated for 40 mins in presence of Mg/ATP mix by [gamma p33]-ATP based scintillation counting method relative to control
# [15] = molecular target: T3, Receptor tyrosine-protein kinase erbB-4 (Homo sapiens, UniProt Q15303); experiment: Inhibition of ErbB4 (unknown origin) at 10 uM incubated for 40 mins in presence of Mg/ATP mix by [gamma p33]-ATP based scintillation counting method relative to control
# DU-145 [16] = experiment: Antiproliferative activity against human DU-145 cells assessed as cell growth inhibition at 10 uM measured after 48 hrs by SRB assay relative to control; type: functional
# [17] = molecular target: Fibroblast growth factor receptor 1 (Homo sapiens) (UniProt P11362); experiment: Inhibition of FGFR1 (unknown origin) at 10 uM incubated for 40 mins in presence of Mg/ATP mix by [gamma p33]-ATP based scintillation counting method relative to control
# UO-31 [18] = experiment: Antiproliferative activity against human UO-31 cells assessed as cell growth inhibition at 10 uM measured after 48 hrs by SRB assay relative to control; type: functional
# HL-60(TB) [19] = experiment: Antiproliferative activity against human HL-60(TB) cells assessed as cell growth inhibition at 10 uM measured after 48 hrs by SRB assay relative to control; type: functional
# MDA-MB-468 [20] = experiment: Antiproliferative activity against human MDA-MB-468 cells assessed as cell growth inhibition measured after 48 hrs by SRB assay; type: functional, cell-based; details: MDA-MB-468, 48 h
# OVCAR-4 [21] = experiment: Antiproliferative activity against human OVCAR-4 cells assessed as cell growth inhibition measured after 48 hrs by SRB assay; type: functional, cell-based; details: OVCAR-4, 48 h
# [22] = molecular target: T4, Vascular endothelial growth factor receptor 2 (Homo sapiens, UniProt P35968); experiment: Inhibition of KDR (unknown origin) at 10 uM incubated for 40 mins in presence of Mg/ATP mix by [gamma p33]-ATP based scintillation counting method relative to control
# [23] = Cytotoxicity against human WI-38 cells assessed as cell growth inhibition at 10 uM measured after 48 hrs by SRB assay relative to control; type: cell-based
# [24] = molecular target: Epidermal growth factor receptor (Homo sapiens, UniProt P00533); experiment: Inhibition of EGFR (unknown origin) at 10 uM incubated for 40 mins in presence of Mg/ATP mix by [gamma p33]-ATP based scintillation counting method relative to control
# OVCAR-4 [25] = experiment: Antiproliferative activity against human OVCAR-4 cells assessed as cell growth inhibition at 10 uM measured after 48 hrs by SRB assay relative to control; type: functional
# [26] = molecular target: Epidermal growth factor receptor (Homo sapiens, UniProt P00533, T790M); experiment: Inhibition of EGFR- T790M mutant (unknown origin) incubated for 40 mins in presence of Mg/ATP mix by [gamma p33]-ATP based scintillation counting method
# [27] = molecular target: T3, Receptor tyrosine-protein kinase erbB-4; experiment: Inhibition of ErbB4 (unknown origin) incubated for 40 mins in presence of Mg/ATP mix by [gamma p33]-ATP based scintillation counting method
# Cytochrome P450 2D6 = Cytochrome P450 2D6 (Homo sapiens, UniProt P10635); experiment: Inhibition of CYP2D6 (unknown origin) using EOMCC as a substrate incubated for 20 mins by fluorescence based analysis; type: ADME
# [28] = molecular target: Voltage-gated inwardly rectifying potassium channel KCNH2 (Homo sapiens, UniProt Q12809); experiment: Inhibition of human ERG incubated for 3 hrs by competitive fluorescence tracer binding based assay
# [29] = molecular target: Epidermal growth factor receptor (Homo sapiens, UniProt P00533, L858R/T790M); experiment: Inhibition of EGFR T790M/L858R mutant (unknown origin) incubated for 40 mins in presence of Mg/ATP mix by [gamma p33]-ATP based scintillation counting method
# Cytochrome P450 3A4 = Cytochrome P450 3A4 (Homo sapiens, UniProt P08684); experiment: Inhibition of CYP3A4 (unknown origin) using BOMCC as a substrate incubated for 20 mins by fluorescence based analysis; type: ADME
# [30] = molecular target: Dual specificity mitogen-activated protein kinase kinase 2 (Homo sapiens, UniProt P36507); experiment: Inhibition of MEK2 (unknown origin) incubated for 40 mins in presence of Mg/ATP mix by [gamma p33]-ATP based scintillation counting method
# Homo sapiens = organism: Homo sapiens; experiment: Selectivity ratio of IC50 for inhibition of EFGR-T790M mutant (unknown origin) to IC50 for ErbB4 (unknown origin); details: time 40.0 min
# [31] = molecular target: Receptor-type tyrosine-protein kinase FLT3 (Homo sapiens, UniProt P36888); experiment: Inhibition of FLT-3(unknown origin) incubated for 40 mins in presence of Mg/ATP mix by [gamma p33]-ATP based scintillation counting method
# [32] = molecular target: Epidermal growth factor receptor (Homo sapiens, UniProt P00533, L861Q); experiment: Inhibition of EGFR- L861Q mutant (unknown origin) incubated for 40 mins in presence of Mg/ATP mix by [gamma p33]-ATP based scintillation counting method
# CYP3A4 = CYP3A4 (Homo sapiens, UniProt P08684); experiment: Potency index, ratio of test compound IC50 to ketoconazole IC50 for inhibition of CYP3A4 (unknown origin) using BOMCC as a substrate incubated for 20 mins by fluorescence based analysis; type: ADME; details: probe BOMCC
# [33] = molecular target: Serine/threonine-protein kinase A-Raf (Homo sapiens, UniProt P10398); experiment: Inhibition of A-RAF (unknown origin) incubated for 40 mins in presence of Mg/ATP mix by [gamma p33]-ATP based scintillation counting method
# [34] = molecular target: T1, RAF proto-oncogene serine/threonine-protein kinase; experiment: Inhibition of RAF1 (unknown origin) incubated for 40 mins in presence of Mg/ATP mix by [gamma p33]-ATP based scintillation counting method
# [35] = molecular target: T2, Serine/threonine-protein kinase B-raf; experiment: Inhibition of wild type B-RAF (unknown origin) incubated for 40 mins in presence of Mg/ATP mix by [gamma p33]-ATP based scintillation counting method
# [36] = molecular target: T4, Vascular endothelial growth factor receptor 2; experiment: Inhibition of KDR (unknown origin) incubated for 40 mins in presence of Mg/ATP mix by [gamma p33]-ATP based scintillation counting method
# [37] = molecular target: Serine/threonine-protein kinase B-raf (Homo sapiens, UniProt P15056, V600E); experiment: Inhibition of BRAF V600E mutant (unknown origin) incubated for 40 mins in presence of Mg/ATP mix by [gamma p33]-ATP based scintillation counting method
# hERG (KCNH2) = hERG (KCNH2) (Homo sapiens, UniProt Q12809); experiment: Safety index, ratio of test compound IC50 to E-4031 IC50 for inhibition of human ERG incubated for 3 hrs by competitive fluorescence tracer binding based assay; details: read-out: Ratio IC50
# T3 sequence (Q15303 whole entry): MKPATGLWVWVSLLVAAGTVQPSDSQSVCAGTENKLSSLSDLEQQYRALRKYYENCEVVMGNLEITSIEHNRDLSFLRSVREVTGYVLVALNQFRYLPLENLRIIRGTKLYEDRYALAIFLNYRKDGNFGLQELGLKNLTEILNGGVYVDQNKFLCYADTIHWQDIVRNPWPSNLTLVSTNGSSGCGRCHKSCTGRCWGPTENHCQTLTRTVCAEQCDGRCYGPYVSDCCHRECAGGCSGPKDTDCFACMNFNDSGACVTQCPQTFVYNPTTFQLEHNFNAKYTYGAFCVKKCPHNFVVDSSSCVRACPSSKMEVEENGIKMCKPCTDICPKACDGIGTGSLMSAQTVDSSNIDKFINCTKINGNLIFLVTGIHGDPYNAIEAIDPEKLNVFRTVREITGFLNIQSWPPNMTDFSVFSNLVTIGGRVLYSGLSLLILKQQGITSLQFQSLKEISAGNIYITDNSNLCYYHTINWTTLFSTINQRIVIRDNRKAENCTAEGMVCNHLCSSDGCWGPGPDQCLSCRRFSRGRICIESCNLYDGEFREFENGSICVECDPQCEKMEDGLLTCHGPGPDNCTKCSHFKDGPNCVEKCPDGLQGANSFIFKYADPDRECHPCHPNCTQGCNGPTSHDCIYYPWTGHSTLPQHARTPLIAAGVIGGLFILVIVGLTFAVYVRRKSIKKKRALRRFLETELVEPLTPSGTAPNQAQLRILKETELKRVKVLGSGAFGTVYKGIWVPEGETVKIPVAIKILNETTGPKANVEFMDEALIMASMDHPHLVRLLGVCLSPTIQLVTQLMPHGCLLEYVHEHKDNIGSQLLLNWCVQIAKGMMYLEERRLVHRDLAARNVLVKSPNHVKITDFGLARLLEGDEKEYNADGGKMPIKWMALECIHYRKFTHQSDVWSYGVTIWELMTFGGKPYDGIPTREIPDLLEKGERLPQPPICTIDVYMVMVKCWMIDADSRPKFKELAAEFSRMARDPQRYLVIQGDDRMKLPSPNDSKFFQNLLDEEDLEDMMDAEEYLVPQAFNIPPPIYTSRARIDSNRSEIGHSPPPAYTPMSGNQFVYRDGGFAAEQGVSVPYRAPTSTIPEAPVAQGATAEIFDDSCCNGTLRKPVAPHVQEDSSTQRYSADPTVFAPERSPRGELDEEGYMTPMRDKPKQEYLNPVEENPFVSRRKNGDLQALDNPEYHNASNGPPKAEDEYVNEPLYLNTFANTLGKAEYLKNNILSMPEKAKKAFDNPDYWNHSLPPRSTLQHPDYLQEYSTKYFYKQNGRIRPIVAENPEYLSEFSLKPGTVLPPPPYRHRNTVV
# T2 sequence (P15056 whole entry): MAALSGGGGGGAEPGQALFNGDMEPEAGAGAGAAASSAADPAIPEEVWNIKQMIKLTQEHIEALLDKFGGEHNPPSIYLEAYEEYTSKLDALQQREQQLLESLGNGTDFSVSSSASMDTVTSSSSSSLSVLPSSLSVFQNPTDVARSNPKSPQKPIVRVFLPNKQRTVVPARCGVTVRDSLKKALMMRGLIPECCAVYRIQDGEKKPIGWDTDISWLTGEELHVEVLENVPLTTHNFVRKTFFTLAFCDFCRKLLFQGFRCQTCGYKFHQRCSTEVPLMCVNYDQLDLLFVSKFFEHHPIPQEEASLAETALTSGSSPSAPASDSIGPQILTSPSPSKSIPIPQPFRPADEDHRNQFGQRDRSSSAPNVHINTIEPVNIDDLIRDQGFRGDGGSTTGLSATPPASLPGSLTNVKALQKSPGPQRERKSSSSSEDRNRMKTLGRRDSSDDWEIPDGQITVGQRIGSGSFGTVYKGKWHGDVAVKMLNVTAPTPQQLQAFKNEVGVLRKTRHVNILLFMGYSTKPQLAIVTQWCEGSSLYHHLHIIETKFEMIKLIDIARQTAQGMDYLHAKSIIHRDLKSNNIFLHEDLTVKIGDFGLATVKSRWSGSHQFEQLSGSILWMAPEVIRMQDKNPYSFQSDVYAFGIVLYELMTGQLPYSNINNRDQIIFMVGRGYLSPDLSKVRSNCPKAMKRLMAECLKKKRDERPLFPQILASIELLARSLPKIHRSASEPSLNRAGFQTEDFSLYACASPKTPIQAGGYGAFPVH
# T4 sequence (P35968 whole entry): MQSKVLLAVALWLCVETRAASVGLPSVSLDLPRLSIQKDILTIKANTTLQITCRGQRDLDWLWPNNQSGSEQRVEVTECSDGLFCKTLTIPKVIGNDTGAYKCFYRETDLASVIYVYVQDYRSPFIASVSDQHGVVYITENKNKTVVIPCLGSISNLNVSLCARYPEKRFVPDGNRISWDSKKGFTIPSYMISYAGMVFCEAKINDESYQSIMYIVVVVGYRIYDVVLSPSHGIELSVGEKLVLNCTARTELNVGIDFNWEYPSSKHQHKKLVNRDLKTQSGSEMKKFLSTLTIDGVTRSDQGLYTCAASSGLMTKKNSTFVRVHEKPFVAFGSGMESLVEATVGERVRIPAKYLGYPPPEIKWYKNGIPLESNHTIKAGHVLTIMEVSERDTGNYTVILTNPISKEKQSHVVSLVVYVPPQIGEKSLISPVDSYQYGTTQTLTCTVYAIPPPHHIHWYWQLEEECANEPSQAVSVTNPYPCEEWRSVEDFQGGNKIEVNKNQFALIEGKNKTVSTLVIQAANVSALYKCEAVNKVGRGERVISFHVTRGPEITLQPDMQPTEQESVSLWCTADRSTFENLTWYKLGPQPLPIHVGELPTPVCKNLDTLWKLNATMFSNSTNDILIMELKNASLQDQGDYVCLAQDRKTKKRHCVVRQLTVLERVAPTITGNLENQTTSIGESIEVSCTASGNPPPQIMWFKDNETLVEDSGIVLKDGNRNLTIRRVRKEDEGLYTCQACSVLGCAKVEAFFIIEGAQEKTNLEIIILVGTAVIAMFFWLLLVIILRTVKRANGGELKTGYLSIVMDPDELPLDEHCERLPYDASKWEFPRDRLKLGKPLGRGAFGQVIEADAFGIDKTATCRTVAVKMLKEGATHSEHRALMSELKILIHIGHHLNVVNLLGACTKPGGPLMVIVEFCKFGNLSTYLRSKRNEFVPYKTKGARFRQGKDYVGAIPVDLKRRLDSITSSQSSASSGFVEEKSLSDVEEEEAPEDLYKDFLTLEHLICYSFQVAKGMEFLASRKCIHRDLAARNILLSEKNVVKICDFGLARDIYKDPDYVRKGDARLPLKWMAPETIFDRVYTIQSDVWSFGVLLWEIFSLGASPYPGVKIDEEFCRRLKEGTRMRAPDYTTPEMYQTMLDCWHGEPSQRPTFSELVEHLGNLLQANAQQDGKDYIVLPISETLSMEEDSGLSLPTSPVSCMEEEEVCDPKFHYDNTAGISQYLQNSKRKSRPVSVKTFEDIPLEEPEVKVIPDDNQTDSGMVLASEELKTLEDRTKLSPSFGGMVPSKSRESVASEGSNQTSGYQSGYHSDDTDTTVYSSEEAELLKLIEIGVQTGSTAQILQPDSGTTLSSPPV
# T1 sequence (P04049 whole entry): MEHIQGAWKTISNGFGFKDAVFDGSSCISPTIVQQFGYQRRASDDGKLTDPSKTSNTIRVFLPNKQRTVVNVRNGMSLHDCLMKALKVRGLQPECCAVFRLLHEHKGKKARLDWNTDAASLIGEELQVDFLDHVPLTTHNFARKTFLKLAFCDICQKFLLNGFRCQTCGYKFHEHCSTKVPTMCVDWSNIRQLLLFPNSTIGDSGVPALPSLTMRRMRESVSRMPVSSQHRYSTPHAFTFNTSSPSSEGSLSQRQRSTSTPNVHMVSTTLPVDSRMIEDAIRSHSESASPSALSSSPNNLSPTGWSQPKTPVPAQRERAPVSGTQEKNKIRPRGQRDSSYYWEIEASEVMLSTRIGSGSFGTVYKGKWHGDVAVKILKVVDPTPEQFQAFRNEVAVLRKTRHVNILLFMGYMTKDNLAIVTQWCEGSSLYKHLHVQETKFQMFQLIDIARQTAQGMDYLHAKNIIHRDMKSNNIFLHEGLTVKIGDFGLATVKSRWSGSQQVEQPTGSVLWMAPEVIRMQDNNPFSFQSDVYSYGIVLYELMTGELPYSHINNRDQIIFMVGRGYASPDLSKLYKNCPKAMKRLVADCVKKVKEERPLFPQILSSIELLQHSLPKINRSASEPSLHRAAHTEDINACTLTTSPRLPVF
# Sequence of Serine/threonine-protein kinase A-Raf (P10398 whole entry): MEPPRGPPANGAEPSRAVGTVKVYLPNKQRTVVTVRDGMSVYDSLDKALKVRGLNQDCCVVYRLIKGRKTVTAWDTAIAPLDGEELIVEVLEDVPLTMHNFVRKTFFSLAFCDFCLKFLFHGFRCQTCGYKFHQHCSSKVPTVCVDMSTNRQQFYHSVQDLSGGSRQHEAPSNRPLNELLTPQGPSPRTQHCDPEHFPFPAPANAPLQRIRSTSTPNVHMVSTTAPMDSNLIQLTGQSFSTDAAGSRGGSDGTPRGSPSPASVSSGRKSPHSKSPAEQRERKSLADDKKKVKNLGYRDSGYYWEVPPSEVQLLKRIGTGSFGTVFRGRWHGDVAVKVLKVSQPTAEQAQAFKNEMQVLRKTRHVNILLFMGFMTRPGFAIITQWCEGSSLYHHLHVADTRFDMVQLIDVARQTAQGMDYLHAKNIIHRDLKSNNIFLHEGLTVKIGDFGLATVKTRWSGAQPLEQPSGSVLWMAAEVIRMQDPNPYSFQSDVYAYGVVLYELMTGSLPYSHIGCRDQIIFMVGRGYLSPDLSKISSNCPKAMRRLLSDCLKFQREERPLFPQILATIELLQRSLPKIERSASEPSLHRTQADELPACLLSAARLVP
# Sequence of Serine/threonine-protein kinase B-raf (Homo sapiens), P15056 [V600E] (P15056 whole entry V600E): as the sequence (P15056 whole entry) above, with V600E counted along it
smiles,measurement,setting,value
CS(=O)(=O)c1nccc(-c2c(-c3cccc(OCc4ccc(F)cc4)c3)nc3sccn23)n1,IC50,NCI-H322M,1820 nM
same,IC50,DU-145 [1],1890 nM
same,IC50,WI-38,12600 nM
same,IC50,SK-MEL-5 [2],1540 nM
same,IC50,SNB-75 [3],15600 nM
same,inhibition at 10 µM,MDA-MB-468 [4],164%
same,growth at 10 µM,[5],60.6%
same,IC50,UO-31 [6],1680 nM
same,inhibition,[7],-2.99%
same,inhibition at 10 µM,SK-MEL-5 [8],94.6%
same,inhibition,[9],10.8%
same,inhibition at 10 µM,SNB-75 [10],4.08%
same,inhibition,[11],9.62%
same,inhibition,[12],33.6%
same,IC50,HL-60(TB) [13],3360 nM
same,inhibition,[14],2.46%
same,inhibition,[15],60.2%
same,inhibition at 10 µM,DU-145 [16],154%
same,inhibition,[17],-0.04%
same,inhibition at 10 µM,UO-31 [18],124%
same,inhibition at 10 µM,HL-60(TB) [19],56.3%
same,IC50,MDA-MB-468 [20],1800 nM
same,IC50,OVCAR-4 [21],3980 nM
same,inhibition,[22],24.8%
same,"inhibition at 48 h, 10 µM",[23],21.6%
same,inhibition,[24],-5.54%
same,inhibition at 10 µM,OVCAR-4 [25],34.9%
c1ccc(COc2cccc(-c3nc4sccn4c3-c3ccncn3)c2)cc1,IC50,[26],380 nM
same,IC50,[27],17.7 nM
same,IC50,Cytochrome P450 2D6,> 90000 nM
same,IC50,[28],12800 nM
same,IC50,[29],8560 nM
same,IC50,Cytochrome P450 3A4,20900 nM
same,growth at 10 µM,[5],78.4%
same,IC50,[30],3250 nM
same,Selectivity Index,Homo sapiens,21.5
same,IC50,[31],1360 nM
same,IC50,[32],4350 nM
same,selectivity ratio at 20 min,CYP3A4,8790
same,IC50,[33],7060 nM
same,inhibition,[15],> 60%
same,IC50,[34],2030 nM
same,IC50,[35],1000 nM
same,IC50,[36],710 nM
same,IC50,[37],1590 nM
same,selectivity ratio at 3 h,hERG (KCNH2),530
